Test: log P by HPLC
Assay type: physicochemical
Conditions: EEC directive 79/831 Annex V. A8 by HPLC (gradient method, acetonitrile/0.1% aqueous phosphoric acid)
A logP of 2.98 was found for `CCCCONc1c(-c2ccccc2F)c(Cl)nc2nc(C)nn12` [compound 372] in this work.
A logP of 3.75 was found for `Cc1nc2nc(Cl)c(-c3c(F)cccc3F)c(NOCc3cc(Cl)cc(Cl)c3)n2n1` [compound 428] in this work.
A logP of 4.19 was found for `CC(C)(C)CNc1c(-c2c(F)cc(F)cc2F)c(Cl)nc2nc(C3CC3)nn12` [compound 461] in this work.
A logP of 3.55 was found for `Cc1nc2nc(Cl)c(-c3c(F)cccc3F)c(NC(C)CC(C)C)n2n1` (centres unmarked) [compound 330] in this work.
A logP of 3.95 was found for `CCCN(CC1CCCCO1)c1c(-c2c(F)cccc2F)c(Cl)nc2nc(C)nn12` (centres unmarked) [compound 346] in this work.
A logP of 2.45 was found for `COCCN(C)c1c(-c2c(F)cccc2F)c(Cl)nc2nc(C)nn12` [compound 336] in this work.
A logP of 3.42 was found for `Fc1cc(F)c(-c2c(Cl)nc3nc(C4CC4)nn3c2N2CCCCN2)c(F)c1` [compound 487] in this work.
A logP of 3.41 was found for `C=C(C)CNc1c(-c2ccccc2Cl)c(Cl)nc2nc(C3CC3)nn12` [compound 495] in this work.
A logP of 2.96 was found for `Cc1nc2nc(Cl)c(-c3ccc(F)cc3F)c(N3CCC(F)CC3)n2n1` [compound 454] in this work.
A logP of 2.68 was found for `Cc1nc2nc(Cl)c(-c3ccc(F)cc3F)c(NCC(F)(F)F)n2n1` [compound 406] in this work.
A logP of 2.34 was found for `Cc1nc2nc(Cl)c(-c3ccccc3F)c(N(C)C)n2n1` [compound 381] in this work.
A logP of 3.05 was found for `Cc1ccc(Nc2c(-c3ccc(F)cc3F)c(Cl)nc3nc(C)nn23)cc1` [compound 298] in this work.
A logP of 3.52 was found for `Cc1nc2nc(Cl)c(-c3ccc(F)cc3F)c(NC3CCCC(C(F)(F)F)C3)n2n1` (centres unmarked) [compound 349] in this work.
A logP of 3.39 was found for `CC1=CCCN(c2c(-c3c(F)cccc3F)c(Cl)nc3nc(C)nn23)C1` [compound 317] in this work.
A logP of 4.27 was found for `Clc1ccccc1-c1c(Cl)nc2nc(C3CC3)nn2c1N1CCCCC1` [compound 493] in this work.
A logP of 1.73 was found for `CC(=O)NC1CCN(c2c(-c3ccc(F)cc3F)c(Cl)nc3nc(C)nn23)C1` (centres unmarked) [compound 450] in this work.
A logP of 3.64 was found for `CCN(CCOC)c1c(-c2c(F)cc(F)cc2F)c(Cl)nc2nc(C3CC3)nn12` [compound 470] in this work.
A logP of 3.4 was found for `Fc1cccc(Cl)c1-c1c(Cl)nc2nc(C3CC3)nn2c1NCC1CC1` [compound 482] in this work.
A logP of 3.52 was found for `Fc1cc(F)c(-c2c(Cl)nc3nc(C4CC4)nn3c2N2CCCC2)c(F)c1` [compound 472] in this work.
A logP of 2.85 was found for `Cc1nc2nc(Cl)c(-c3c(F)cccc3F)c(NCC(C)C)n2n1` [compound 328] in this work.
A logP of 4.16 was found for `Cc1nc2nc(Cl)c(-c3ccccc3F)c(NC(C)C3CCCCC3)n2n1` (centres unmarked) [compound 396] in this work.
A logP of 3.36 was found for `CCCN(CCOC)c1c(-c2ccccc2Cl)c(Cl)nc2nc(C)nn12` [compound 416] in this work.
A logP of 3.13 was found for `Cc1nc2nc(Cl)c(-c3c(F)cccc3F)c(NOCc3ccccc3Cl)n2n1` [compound 431] in this work.
A logP of 3.37 was found for `Cc1nc2nc(Cl)c(-c3ccccc3F)c(N3CCC(C(F)(F)F)CC3)n2n1` [compound 392] in this work.
A logP of 2.49 was found for `CC(=O)C1CCN(c2c(-c3c(F)cccc3F)c(Cl)nc3nc(C)nn23)CC1` [compound 442] in this work.
A logP of 3.01 was found for `Cc1nc2nc(Cl)c(-c3c(F)cccc3F)c(N3CC=CCC3)n2n1` [compound 308] in this work.

Same assay, conditions: HPLC, gradient method, acetonitrile/0.1% aqueous phosphoric acid; EEC directive 79/831 Annex V. A8
A logP of 3.23 was found for `CCN(CC1CCCO1)c1c(-c2ccccc2Cl)c(Cl)nc2nc(C)nn12` (centres unmarked) [compound 239] in this work.
A logP of 4.3 was found for `CC1CCCCN1c1c(-c2ccc(F)cc2F)c(Cl)nc2nc(C3CC3)nn12` (centres unmarked) [compound 611] in this work.
A logP of 4.02 was found for `Fc1ccc(-c2c(Cl)nc3nc(C4CC4)nn3c2NC2CCCCC2)c(F)c1` [compound 652] in this work.
A logP of 3.99 was found for `CC(Nc1c(-c2c(F)cc(F)cc2F)c(Br)nc2nc(C(F)(F)F)nn12)C(F)(F)F` (centres unmarked) [compound 25] in this work.
A logP of 3.01 was found for `CCC(C)Nc1c(-c2ccc(F)cc2F)c(Cl)nc2nc(C)nn12` (centres unmarked) [compound 194] in this work.
A logP of 3.33 was found for `CCN(CC)c1c(-c2c(F)cccc2Cl)c(Cl)nc2nc(C)nn12` [compound 252] in this work.
A logP of 2.8 was found for `CCOC(=O)CN(C)c1c(-c2c(F)cc(F)cc2F)c(Cl)nc2nc(C)nn12` [compound 150] in this work.
A logP of 4.54 was found for `CC1CCCCN1c1c(-c2c(F)cccc2Cl)c(Cl)nc2nc(C3CC3)nn12` (centres unmarked) [compound 705] in this work.
A logP of 1.47 was found for `CCN(CCN)c1c(-c2ccc(F)cc2F)c(Cl)nc2nc(C3CC3)nn12` [compound 724] in this work.
A logP of 4.23 was found for `CC(C)C(C)Nc1c(-c2ccc(F)cc2Cl)c(Cl)nc2nc(C3CC3)nn12` (racemic) [compound 775] in this work.
A logP of 4.04 was found for `CCN(CCOC)c1c(-c2c(F)cc(F)cc2F)c(Cl)nc2nc(C(F)(F)F)nn12` [compound 31] in this work.
A logP of 2.54 was found for `Cc1nc2nc(Cl)c(-c3ccc(F)cc3Cl)c(NCC(F)F)n2n1` [compound 697] in this work.
A logP of 4.1 was found for `Fc1cccc(Cl)c1-c1c(Cl)nc2nc(C3CC3)nn2c1N1CCCC1C(F)(F)F` (centres unmarked) [compound 703] in this work.
A logP of 3.44 was found for `Cc1nc2nc(Cl)c(-c3c(F)cc(F)cc3F)c(NC(C)C(=O)OC(C)(C)C)n2n1` (centres unmarked) [compound 126] in this work.
A logP of 2.63 was found for `Cc1nc2nc(Cl)c(-c3c(F)cccc3F)c(NCCC(F)(F)F)n2n1` [compound 184] in this work.
A logP of 4.44 was found for `C=C(C)CN(C)c1c(-c2ccc(F)cc2F)c(Cl)nc2nc(C(F)(F)F)nn12` [compound 546] in this work.
A logP of 4.1 was found for `CC1CN(c2c(-c3ccc(F)cc3F)c(Cl)nc3nc(C(F)(F)F)nn23)CC(C)O1` (centres unmarked) [compound 808] in this work.
A logP of 3.25 was found for `Fc1cccc(F)c1-c1c(Cl)nc2nc(C3CC3)nn2c1N1CCCC1` [compound 679] in this work.
A logP of 3.8 was found for `Fc1ccc(-c2c(Cl)nc3nc(C(F)(F)F)nn3c2NCC2CC2)c(F)c1` [compound 533] in this work.
A logP of 4.72 was found for `CC(C)C(C)Nc1c(-c2ccc(Cl)cc2Cl)c(Cl)nc2nc(C3CC3)nn12` (single isomer, unassigned) [compound 759] in this work.
A logP of 3.54 was found for `CCOC(=O)CN(CC)c1c(-c2ccc(F)cc2F)c(Cl)nc2nc(C3CC3)nn12` [compound 595] in this work.
A logP of 2.7 was found for `CC(Nc1c(-c2ccc(Cl)cc2Cl)c(Cl)nc2nc(C3CC3)nn12)C(=O)O` (centres unmarked) [compound 774] in this work.
A logP of 4.45 was found for `Fc1ccc(-c2c(Cl)nc3nc(C(F)(F)F)nn3c2N2CCCCC2)c(F)c1` [compound 809] in this work.
A logP of 2.75 was found for `COCCNc1c(-c2ccc(F)cc2F)c(Cl)nc2nc(C3CC3)nn12` [compound 654] in this work.
A logP of 3.68 was found for `Fc1cc(F)c(-c2c(Cl)nc3nc(C4CC4)nn3c2N2CCC(F)CC2)c(F)c1` [compound 675] in this work.
A logP of 3.72 was found for `Fc1ccc(-c2c(Cl)nc3nc(C4CC4)nn3c2N2CCCC2)c(Cl)c1` [compound 634] in this work.
A logP of 2.56 was found for `CC(=O)NC1CCN(c2c(-c3ccc(F)cc3F)c(Cl)nc3nc(C(F)(F)F)nn23)C1` (centres unmarked) [compound 793] in this work.
A logP of 4.36 was found for `CC(C)CN(N)c1c(-c2ccc(Cl)cc2Cl)c(Cl)nc2nc(C3CC3)nn12` [compound 750] in this work.
A logP of 3.36 was found for `Fc1ccc(-c2c(Cl)nc3nc(C4CC4)nn3c2N2CCCC2)c(F)c1` [compound 606] in this work.
A logP of 3.17 was found for `Fc1ccc(-c2c(Cl)nc3nc(C4CC4)nn3c2NCC(F)(F)F)c(F)c1` [compound 714] in this work.
A logP of 2.68 was found for `Cc1nc2nc(Cl)c(-c3c(F)cccc3F)c(NOC(C)(C)C)n2n1` [compound 141] in this work.
A logP of 3.77 was found for `CC(Nc1c(-c2ccc(F)cc2Cl)c(Cl)nc2nc(C3CC3)nn12)C(F)(F)F` (single isomer, unassigned) [compound 768] in this work.
A logP of 3.18 was found for `CCc1nc2nc(Cl)c(-c3c(F)cc(F)cc3F)c(NCCC(F)(F)F)n2n1` [compound 6] in this work.
A logP of 4.41 was found for `CC1CCN(c2c(-c3ccc(F)cc3F)c(Cl)nc3nc(C4CC4)nn23)CC1` [compound 613] in this work.
A logP of 4.72 was found for `CC(C)C(C)Nc1c(-c2ccc(Cl)cc2Cl)c(Cl)nc2nc(C3CC3)nn12` (single isomer, unassigned) [compound 756] in this work.
A logP of 3.2 was found for `CCCNc1c(-c2ccc(F)cc2F)c(Cl)nc2nc(C3CC3)nn12` [compound 649] in this work.
A logP of 3.06 was found for `CN(C)c1c(-c2ccc(F)cc2F)c(Cl)nc2nc(C3CC3)nn12` [compound 722] in this work.
A logP of 3.81 was found for `COC(=O)C1CCN(c2c(-c3ccc(F)cc3F)c(Cl)nc3nc(C(F)(F)F)nn23)CC1` [compound 803] in this work.
A logP of 3.99 was found for `Cc1ccccc1Nc1c(-c2ccc(F)cc2F)c(Cl)nc2nc(C(F)(F)F)nn12` [compound 811] in this work.
A logP of 2.17 was found for `CC(=O)NC1CCN(c2c(-c3ccc(F)cc3F)c(Cl)nc3nc(C4CC4)nn23)C1` (centres unmarked) [compound 728] in this work.
A logP of 3.37 was found for `CCc1nc2nc(Cl)c(-c3c(F)cc(F)cc3F)c(N(CC)CCOC)n2n1` [compound 30] in this work.
A logP of 3.04 was found for `Fc1cccc(F)c1-c1c(Cl)nc2nc(C3CC3)nn2c1NCC(F)(F)F` [compound 771] in this work.
A logP of 4.12 was found for `CC(Nc1c(-c2ccc(Cl)cc2Cl)c(Cl)nc2nc(C3CC3)nn12)C(F)(F)F` (single isomer, unassigned) [compound 710] in this work.
A logP of 3.26 was found for `Fc1ccc(-c2c(Cl)nc3nc(C4CC4)nn3c2NCC2CC2)c(F)c1` [compound 656] in this work.
A logP of 3.78 was found for `CCN(CC1CCCO1)c1c(-c2ccc(F)cc2F)c(Cl)nc2nc(C3CC3)nn12` (centres unmarked) [compound 593] in this work.
A logP of 2.62 was found for `Cc1nc2nc(Cl)c(-c3ccccc3Cl)c(N(C)CC3OCCO3)n2n1` [compound 219] in this work.
A logP of 2.56 was found for `Cc1nc2nc(Cl)c(-c3ccc(F)cc3F)c(N(C)CC3OCCO3)n2n1` [compound 202] in this work.
A logP of 3.28 was found for `CCOC(=O)CN(C)c1c(-c2ccc(F)cc2F)c(Cl)nc2nc(C3CC3)nn12` [compound 717] in this work.
A logP of 1.55 was found for `Fc1ccc(-c2c(Cl)nc3nc(C4CC4)nn3c2N2CCC(N3CCOCC3)CC2)c(F)c1` [compound 734] in this work.
A logP of 3.63 was found for `Cc1nc2nc(Cl)c(-c3c(F)cc(F)cc3F)c(N(C)CC(C)C)n2n1` [compound 154] in this work.
A logP of 3.6 was found for `Cc1nc2nc(Cl)c(-c3ccc(F)cc3Cl)c(NC(C)C(C)C)n2n1` (centres unmarked) [compound 588] in this work.
A logP of 4.82 was found for `CC1CCN(c2c(-c3ccc(F)cc3Cl)c(Cl)nc3nc(C4CC4)nn23)CC1` [compound 618] in this work.
A logP of 3.39 was found for `Cc1nc2nc(Cl)c(-c3c(F)cccc3F)c(NC3CCC(C(F)(F)F)CC3)n2n1` (centres unmarked) [compound 190] in this work.
A logP of 3.8 was found for `CC(C)Nc1c(-c2c(F)cc(F)cc2F)c(Cl)nc2nc(C(F)(F)F)nn12` [compound 11] in this work.

From patent US7186831B2, “5-halo-2-alkyl[1,2,4]triazolo[1,5-a]pyrimidin-7-amines” (priority 2001, dated 2007)
